Measured values taken from patent US11419902B2, “Compositions comprising bacterial strains” (4D Pharma Research Limited, priority 2018, dated 2022).

How the values were obtained:
MAP2 = MAP2 expression in SH-SY5Y cells (qPCR, Example 22); format: cell-based; conditions: 10% bacterial supernatants 17 h, vs negative control and media control
Experimental: SH-SY5Y were plated in 6 well plates at a density of 0.5×10^6 cells. After 24 h, cells were treated in differentiation medium (growth medium containing 1% FBS) with 10% bacterial supernatants or YCFA+ for 17 h. Cells were collected, and total RNA was isolated according to the RNeasy mini kit protocol (Qiagen). cDNA was made using the High Capacity cDNA reverse transcription kit (Applied Biosystems). Gene expression was measured by qPCR. GAPDH was used as internal control. Fold change was calculated according to the 2^(−ΔΔct) method. Primer sets used are listed as SEQ ID NOs: 2, 3, 4 and 5.

[1] = test system: neuron specific enolase (NSE)/enolase 2; experiment: Suppression of neuron specific enolase (NSE)/enolase 2 (Example 18); format: cell-based; conditions: FIG. 57
β3Tubulin = β3Tubulin expression in SH-SY5Y cells (immunostaining, immunoblotting); format: cell-based; conditions: undifferentiated SH-SY5Y cells, 10% bacterial supernatant 24 h, vs untreated cells
Experimental: Cells were seeded onto 8-well chamber slides (Marienfeld Laboratory Glassware) at 5×10^4 cells/well overnight and were treated with 10% bacterial supernatant for 24 h. For differentiation, cells were treated with 10 nM RA for 5 days before treating with cell-free bacterial supernatant for 24 h.
Afterwards, the cells were fixed with 4% paraformaldehyde in PBS for 20 minutes at room temperature (RT). Fixed cells were washed with PBS, and permeabilized with 1% Triton X-100 in PBS for 10 minutes. After washing with PBS, the slides were incubated with blocking buffer (4% BSA/PBS) for 1 h at RT before adding anti-MAP2 antibody or β3-tubulin (sc-74421 and sc-80005 respectively, Santa Cruz Biotechnology Inc) diluted in 1% BSA/PBS for 12 h at 4° C. They were then washed twice with PBS, followed by incubation with Alexa Flour 488 conjugated anti-mouse (Molecular Probes Inc) and Alexa Flour 594 conjugated Phalloidin (ab176757, Abcam) for 1 h at RT. […]
SH-SY5Y cells cultured under the indicated conditions described above, treated with MRx0029 for 24 h and then lysed in RIPA buffer containing cocktail of protease inhibitors (Roche Diagnostics, UK). […] The blots were then incubated with the appropriate horseradish peroxidase (HRP)-conjugated secondary antibody, and proteins were detected by chemiluminescence detection kit (Pierce Biotechnology, Rockford, Ill.). […]

PBMCs = experiment: Cytokine analysis of PBMCs from healthy donors (multiplex immunoassay); format: cell-based, human; conditions: PBMC culture, 10% bacteria supernatant, 72 h
Experimental: Frozen healthy human PBMCs were purchased from Stem Cells Technologies (Cambridge UK). Briefly cells were thaw and left to rest overnight in full growth media (RPMI 1640 with 10% FBS, 2 mM L. Glutamine, 55 μM 2-Mercapoethanol and 100 U/ml penicillin, 100 μg/ml streptomycin) in CO2 incubator at 37° C. For the experiment cells were plated at a density of 750,000 Cell/well in 48 well plates and treated in full growth media with 10% bacteria supernatants in the presence or absence of 1 ng/ml LPS. Cell culture media was added to untreated wells. Cells were left to rest for 72 h, thereafter cell free supernatants were collected and spun down for 3 minutes at 10,000 g at 4° C. Samples were stored at −80° C. for cytokine analysis.
PBMCs were treated as described in Example 5.
Cytokine quantification was conducted using a ProcartaPlex multiplex immunoassay following the manufacturer's recommendations (Thermo Fischer Scientific). Briefly, 50 μl of cell-free co-culture supernatants were used for cytokine quantification using a MAGPIX® MILLIPLEX® system (Merck) with the xPONENT software (Luminex, Austin, Tex., USA). Data was analysed using the MILLIPLEX® analyst software (Merck) using a 5-parameter logistic curve and background subtraction to convert mean fluorescence intensity to pg/ml values.

IL-6 = IL-6 secretion by astrocytoma cell line U373 (ELISA); format: cell-based, Human; conditions: U373 cells, 100 μl bacteria supernatant, 24 h, vs untreated and YCFA+ controls
[2] = test system: ERK signalling (phosphorylated ERK1 and 2/total ERK); experiment: ERK signalling in SKMEL31 cell line (Western blot); format: cell-based; conditions: SKMEL31, relative to the negative control (YFCA+)
Experimental: Following 24 h treatment with the appropriate drugs either in presence of 10% bacterial supernatant or absence (YCFA+), protein extracts were obtained by lysing cells in RIPA buffer (R0278; Sigma Aldrich) supplemented with protease inhibitors (cOmplete Protease Inhibitor Cocktail Tablets; Roche, Switzerland) and 1 mM/L sodium orthovanadate, 0.5 mM/L PMSF. Protein quantification was done by the BCA protein assay. Equal amounts of total protein (20 μg/lane) were then separated by SDS-PAGE on 4-15% gradient gel (BioRad) and transferred to polyvinylidene difluoride (PVDF) membranes (Thermo Fisher Scientific, Loughborough). […]
Proteins of interest were detected with the appropriate HRP-conjugated secondary antibody (1:10,000, Thermo Fisher Scientific, Loughborough), developed with the ECL Western blotting Super Signal PicoPlus substrate (34577; Thermo Fisher Scientific, Loughborough), and visualised in Chemidoc XRS Imager (BioRad).
The effects of the following treatments were assessed on the SKMEL31 melanoma cell line (heterozygous for BRAF V600E): (1) MRx0029; (2) Vemurafenib (VEMU) in YFCA+ medium; (3) VEMU and MRx0029; (4) Azacytidine-C (Aza-c) in YFCA+ medium; (5) Aza-c and MRx0029; (6) VEMU, Aza-c and MRx0029.

For Megasphaera massiliensis MRx0029, the MAP2 expression (MAP2) was “statistically-significant increase of MAP2 expression”, the “neuron specific enolase (NSE)/enolase 2” value [1] was “statistically-significant effect suppressing” and the “expression of β3Tubulin” value (β3Tubulin) was “increases the expression of β3Tubulin”. For the same substance, the “expression of IL-1β” value (PBMCs) was “increased the expression”, the “expression of IL-6” value (PBMCs) was “increased the expression” and the “expression of IL-10” value (PBMCs) was “increased the expression”. The “expression of IL-23” value (PBMCs) was “increased the expression”, the “expression of MIP-3α” value (PBMCs) was “increased the expression” and the “expression of TNF-α” value (PBMCs) was “increased the expression”. The IL-6 secretion (IL-6) was “upregulates IL-6 secretion” and the ERK signalling [2] was “reduced ERK signalling”.
